Laboratory results from ChEMBL document CHEMBL1697781, “Assessment of the health effects of chemicals in humans: II. Construction of an adverse effects database for QSAR modeling” (Curr Drug Discov Technol, 2004).

Experiments:
Conditions in all cases: human; call rule not given here
Hepatotoxicity [1] = experiment: FDA HLAED, liver enzyme composite activity
Hepatotoxicity [2] = experiment: FDA HLAED, alkaline phosphatase increase
Hepatotoxicity [3] = experiment: FDA HLAED, serum glutamic oxaloacetic transaminase (SGOT) increase
Hepatotoxicity [4] = experiment: FDA HLAED, serum glutamic pyruvic transaminase (SGPT) increase
Hepatotoxicity [5] = experiment: FDA HLAED, lactate dehydrogenase (LDH) increase
Hepatotoxicity [6] = experiment: FDA HLAED, gamma-glutamyl transferase (GGT) increase
Wherever GGT Increase - Index Value is given: reference of the scale not given here.
Wherever LDH Increase - Index Value is given: reference of the scale not given here.

Structure (SMILES) | Composite Activity - Active (Hepatotoxicity [1]) | Composite Activity - Marginal (Hepatotoxicity [1]) | Composite Activity - Score (Hepatotoxicity [1]) | Alkaline Phosphatase Increase - Activity Score (Hepatotoxicity [2]) | Alkaline Phosphatase Increase - Index Value (Hepatotoxicity [2]) | Alkaline Phosphatase Increase - Number of Reports (Hepatotoxicity [2]) | SGOT Increase - Activity Score (Hepatotoxicity [3]) | SGOT Increase - Index Value (Hepatotoxicity [3]) | SGOT Increase - Number of Reports (Hepatotoxicity [3]) | SGPT Increase - Activity Score (Hepatotoxicity [4]) | SGPT Increase - Index Value (Hepatotoxicity [4]) | SGPT Increase - Number of Reports (Hepatotoxicity [4]) | LDH Increase - Activity Score (Hepatotoxicity [5]) | LDH Increase - Index Value (Hepatotoxicity [5]) | LDH Increase - Number of Reports (Hepatotoxicity [5]) | GGT Increase - Activity Score (Hepatotoxicity [6]) | GGT Increase - Index Value (Hepatotoxicity [6]) | GGT Increase - Number of Reports (Hepatotoxicity [6])
CC(C)(C)NC[C@H](O)COc1ccccc1C1CCCC1 [PENBUTOLOL] | 0 | 0 | Inactive | Inactive | 0 | < 4 | Inactive | 0 | < 4 | Inactive | 0 | < 4 | Inactive | 0 | < 4 | Inactive | 0 | < 4
Nc1nc2c(ncn2CCC(CO)CO)c(=O)[nH]1 [PENCICLOVIR] | 0 | 0 | Inactive | Inactive | 0 | < 4 | Inactive | 0 | < 4 | Inactive | 0 | < 4 | Inactive | 0 | < 4 | Inactive | 0 | < 4
N=C(N)c1ccc(OCCCCCOc2ccc(C(=N)N)cc2)cc1 [PENTAMIDINE] | 0 | 0 | Inactive | Inactive | 11.5 | < 4 | Inactive | 5.7 | < 4 | Inactive | 5.7 | < 4 | Inactive | 5.7 | < 4 | Inactive | 0 | < 4
OC[C@H]1O[C@@H](n2cnc3c2NC=NC[C@H]3O)C[C@@H]1O [PENTOSTATIN] | 0 | 0 | Inactive | Inactive | 0 | < 4 | Inactive | 0 | < 4 | Inactive | 0 | < 4 | Inactive | 0 | < 4 | Inactive | 0 | < 4
CC(=O)CCCCn1c(=O)c2c(ncn2C)n(C)c1=O [PENTOXIFYLLINE] | 0 | 0 | Inactive | Inactive | 1 | >= 4 | Inactive | 0.9 | >= 4 | Inactive | 0.3 | < 4 | Inactive | 0.6 | >= 4 | Inactive | 0 | < 4
CCCN1C[C@H](CSC)C[C@@H]2c3cccc4[nH]cc(c34)C[C@H]21 [PERGOLIDE] | 0 | 0 | Inactive | Inactive | 1.3 | < 4 | Inactive | 3.9 | < 4 | Inactive | 3.9 | < 4 | Inactive | 0 | < 4 | Inactive | 0 | < 4
CC1(C)C(C=C(Cl)Cl)C1C(=O)OCc1cccc(Oc2ccccc2)c1 (stereo unspecified) [PERMETHRIN] | 0 | 0 | Inactive | Inactive | 0 | < 4 | Inactive | 0 | < 4 | Inactive | 0 | < 4 | Inactive | 0 | < 4 | Inactive | 0 | < 4
CC[C@@H]1C(=O)OC[C@@H]1Cc1cncn1C [PILOCARPINE] | 0 | 0 | Inactive | Inactive | 0 | < 4 | Inactive | 4.6 | < 4 | Inactive | 4.6 | < 4 | Inactive | 0 | < 4 | Inactive | 0 | < 4
O=c1[nH]c2ccccc2n1C1CCN(CCCC(c2ccc(F)cc2)c2ccc(F)cc2)CC1 [PIMOZIDE] | 0 | 0 | Inactive | Inactive | 17.6 | < 4 | Inactive | 0 | < 4 | Inactive | 17.6 | < 4 | Inactive | 0 | < 4 | Inactive | 17.6 | < 4
CC(C)NCC(O)COc1cccc2[nH]ccc12 (stereo unspecified) [PINDOLOL] | 0 | 0 | Inactive | Inactive | 1 | < 4 | Inactive | 2.6 | >= 4 | Inactive | 2.6 | >= 4 | Inactive | 0.7 | < 4 | Inactive | 0 | < 4
CC(=O)O[C@H]1C[C@@H]2CC[C@@H]3[C@H](CC[C@@]4(C)[C@H]3C[C@H](N3CC[N+](C)(C)CC3)[C@@H]4OC(C)=O)[C@@]2(C)C[C@@H]1N1CC[N+](C)(C)CC1.[Br-].[Br-] [PIPECURONIUM BROMIDE] | 0 | 0 | Inactive | Inactive | 0 | < 4 | Inactive | 0 | < 4 | Inactive | 0 | < 4 | Inactive | 0 | < 4 | Inactive | 0 | < 4
CCN1CCN(C(=O)N[C@@H](C(=O)N[C@@H]2C(=O)N3[C@@H]2SC(C)(C)[C@@H]3C(=O)O)c2ccccc2)C(=O)C1=O [PIPERACILLIN] | 0 | 0 | Inactive | Inactive | 0.3 | < 4 | Inactive | 0.3 | < 4 | Inactive | 0 | < 4 | Inactive | 0 | < 4 | Inactive | 0 | < 4
